Columns and labels:
Type in all cases: in vivo
[1] = system: syndromes produced by 5-hydroxytryptophan (5-HTP); test: 5-HTP response potentiation test; conditions: Mus musculus, ip; mice; before dl-5-HTP 90 mg/kg i.v.
Excerpt: It is not possible by experimental means to induce depressions in laboratory animals. In order to evaluate a possible anti depressive effect on new substances biochemical-pharmacological test methods must be resorted to. One such method, which seems to give a good indication of the potential anti depressive effects of the test substances, is described in Europ. J. Pharmacol. 17, 107, 1972. This method involves the measurement of the potentiation of the syndromes produced by 5-hydroxytryptophan (5-HTP) in a laboratory animal.
5-HTP response potantiation test
Inhibition of the uptake of 5-HT potentiates the effects of administered 5-hydroxytryptophan (5-HTP) probably by increasing the amount of 5-HT at the receptor. Three mice are given the test drugs 1 hour (or 4, 24 hours) before dl-5-HTP, 90 mg/kg i.v. 5-HTP alone gives only a weak behavioural syndrome but in pretreated mice there is seen a characteristic behavioural syndrome, which comes within five minutes: tremor, lordosis, abduction of the hindlegs, head-twitches.
The absence or presence of respective syndrome is scored in groups of ten mice. The compound was administered in at least five doses and the quantal responses were analysed by probit analysis and ED50 determined according to the method of Litchfield and Wilcoxon.

motor activity in mice = test: Motor activity in mice (exploratory activity in locomotion cage); set-up: key to Motor Activity (+ = increase, - = decrease, 0 = no effect): + = increase; - = decrease; 0 = no effect; conditions: for Motor Activity (+ = increase, - = decrease, 0 = no effect): recorded for ten minutes one hour after administration, compared to control groups
Method: The lack of euphoric effects, that is lack of central stimulatory activity, is tested by measuring the motor activity in mice after administration of the test substance.
The exploratory activity of mice was recorded in a locomotion cage in which the movements were counted each time the animals cross-circuits an electrical current in the bottom plate. The activity was recorded for ten minutes one hour after the administration of the drug. The animals were tested individually. Groups of six mice were used and the mice were only used once. The activity was expressed in per cent of the activity of control groups ran simultaneously. The compounds were administered in at least four doses. The increase (+) or decrease (-) of the activity compared to control groups was determined from log dose response curves.

[2] = system: aggressive behaviour in mice; test: Aggressive behaviour in isolated male mice (antiaggressivity); conditions: Mus musculus, ip, dose which reduces aggressiveness score by 50%, read-out: Antiaggressive behaviour in mice ED50
Method: Potential anxiolytic activity is tested by measuring the antiaggressivity in isolated mice after administration of the test substance. In this test not amphetamine but Valium -- a well-known anxiolytic substance -- is used as a reference.
Aggressive behaviour in mice
Male mice kept isolated for 3 weeks or longer develop an aggressive behavior when caged together. The method used follows that of Valzelli et al. (Europ. J. Pharmacol. 2, 144, 1967), with the exception that 2 mice were tested on each other. The aggressiveness was scored during a 5 min test according to the following schedule:
0 the animals show no interest in each other except occasional nosing
25 frequent vigorous nosing and tail rattling, the animals assume a fighting position and occassionally attack each other -- no more than 3-4 times in the 5 min period
50 tail rattling, powerful attacks -- no more than 10 times in the test period
75 the animals follow their partners, attacking and biting for most of the time
100 attacks over the entire period.
The animals were used for several experiments but with intervals of at least one week. Groups of 10 mice were used.
ED50 is the dose which reduces the aggressiveness score by 50%.

Row | Structure (SMILES) | ED50 [1] | Motor Activity (+ = increase, - = decrease, 0 = no effect) (motor activity in mice) | ED50 [2] | central stimulation (in words) (motor activity in mice)
1 | CCC(N)Cc1ccc(N(C)C)cc1Cl (centres unmarked) [H 2-Cl CH3 CH3 H C2 H5] | 0.25 mg/kg | 0 |  | 
2 | CC(N)Cc1ccc(N(C)C)cc1Cl.Cl.Cl (centres unmarked) [H 2-Cl CH3 CH3 H CH3] | 0.25 mg/kg | - | 2.5 to 5 mg/kg | 
3 | CN(C)c1ccc(CC(C)(C)N)cc1.Cl.Cl [H H CH3 CH3 CH3 CH3] | 2.5 mg/kg | 0 |  | 
4 | CCN(CC)c1ccc(CC(C)N)cc1 (centres unmarked) [H H C2 H5 C2 H5 H CH3] | 2 mg/kg | - | 5 to 10 mg/kg | 
5 | CC(N)Cc1c(Cl)cc(N(C)C)cc1Cl.Cl.Cl (centres unmarked) [2-Cl 6-Cl CH3 CH3 H CH3] | 0.1 mg/kg | - | > 5 mg/kg | 
6 | CC(N)Cc1ccc(N(C)C)cc1Br.Cl.Cl (centres unmarked) [H 2-Br CH3 CH3 H CH3] | 0.1 mg/kg |  |  | 
7 | CC(N)Cc1ccc2c(c1)CCCN2C.Cl.Cl (centres unmarked) [H H CH3 (CH2)3 H CH3, 6-(2-AMINOPROPYL)-1-METHYL-1, 2, 3, 4-TETRAHYDROQUINOLINE DIHYDROCHLORIDE] | 1.5 mg/kg |  | > 5 mg/kg | 
8 | CN1C(=O)CN=C(c2ccccc2)c2cc(Cl)ccc21 [Valium, reference compound] |  |  | 2.5 mg/kg | 
9 | CC(N)Cc1ccc(N(C)C)c(Br)c1.Cl.Cl (centres unmarked) [H 3-Br CH3 CH3 H CH3] | 1 mg/kg |  | > 5 mg/kg | 
10 | CC(N)Cc1ccc(Cl)cc1 (centres unmarked) [p-Chloroamphetamine, reference compound] | 0.8 mg/kg |  | 0.3 mg/kg | pronounced
11 | Cc1cc(N(C)C)ccc1CC(C)N.Cl.Cl (centres unmarked) [H 2-CH3 CH3 CH3 H CH3] | 0.6 mg/kg | - | 2.5 to 5 mg/kg | 
12 | CCN(C)c1ccc(CC(C)N)cc1 (centres unmarked) [H H C2 H5 CH3 H CH3] | 0.7 mg/kg |  | < 5 mg/kg | 
13 | CC(N)Cc1ccc(N)cc1 (centres unmarked) [p-Aminoamphetamine, reference compound] | 11.5 mg/kg |  |  | 
14 | CC(N)Cc1ccccc1 (centres unmarked) [Amphetamine] | > 5 mg/kg |  |  | pronounced
15 | CCNc1ccc(CC(C)N)cc1.Cl.Cl (centres unmarked) [H H C2 H5 H H CH3] | 1 mg/kg |  | 1.25 mg/kg | 
